# Measured values from publication PMC9297786 (Molecular Oncology, 2022).
# Where a name gives a salt, the structure may show the parent alone.
# Test system: K562
# Assay: cells
# Parameters: MTT cell growth inhibition assay, absorbance at 490 nm
# Conditions: Homo sapiens, K562, 48 h, read-out: Inhibition rate (%, 10 μM)
# Experimental: Exponential‐phase cells were seeded into 96‐well plates at a density of 2 × 10^4 cells per well in complete medium. After 24 h, cells were treated with drugs at indicated concentrations and incubated for 48 h. Fresh medium containing 20 μL MTT solution (5 mg·mL^−1) was then added to each well. Then plates were incubated for another 4 h at 37 °C. After removing the medium, 150 μL DMSO was added to each well. The absorbance was recorded at 490 nm in the microplate reader and the inhibition ratio (I%) was calculated. The cell growth assay was conducted as described previously. K562 cells were cultured in IMDM containing 10% fetal bovine serum, 100 U·mL^−1 penicillin and 100 U·mL^−1 streptomycin. […] MEG‐01 cells were cultured in DMEM containing 10% fetal bovine serum, 100 U·mL^−1 penicillin and 100 U·mL^−1 streptomycin. […] Cells were grown at 37 °C in a humidified atmosphere with 5% CO2. […] To identify an EPHB4‐specific inhibitor with a potential of rapid translation into clinic, a pool of clinically approved TKIs and compounds was screened in this study (Fig. S2 and Table S4).
row,Compound,inhibition at 10 µM
1,CN(c1nccc(=O)[nH]1)C1CCN(c2nc3ccccc3n2Cc2ccc(F)cc2)CC1 [mizolastine],-89.1%
2,COc1ccc2cc3[n+](cc2c1OC)CCc1cc2c(cc1-3)OCO2 [berberine],49.8%
3,O=c1ccc2cc3ccoc3cc2o1 [psoralen],-51.5%
4,Nc1nc2c(ncn2COCCO)c(=O)[nH]1 [acyclovir],-42.6%
5,CC(C)NCC(O)c1ccc(NS(C)(=O)=O)cc1 (stereo not drawn) [sotalol],-52.8%
6,CCCCC1=NC2(CCCC2)C(=O)N1Cc1ccc(-c2ccccc2-c2nnn[nH]2)cc1 [irbesartan],-56.4%
7,CNC(=O)c1cc(Oc2ccc(NC(=O)Nc3ccc(Cl)c(C(F)(F)F)c3)c(F)c2)ccn1 [regorafenib],8.49%
8,COc1ccc2c3c1O[C@H]1[C@@H](O)C=C[C@H]4[C@@H](C2)N(C)CC[C@@]341 [codeine],-64%
9,O=c1[nH]c2ccccc2n1CCCN1CCC(n2c(=O)[nH]c3cc(Cl)ccc32)CC1 [domperidone],-38.6%
10,CCOc1ccccc1OCCN[C@H](C)Cc1ccc(OC)c(S(N)(=O)=O)c1 [tamsulosin],-35.2%
11,CC(=O)Oc1c(C)cc(OCC(O)CNC(C)C)c(C)c1C (stereo not drawn) [metipranolol],-26.8%
12,CCN(CC)CC(=O)Nc1c(C)cccc1C [lidocaine],-38.5%
13,COc1cc(C=O)ccc1O [vanillin],-86.2%
14,NCCc1ccc(O)c(O)c1 [dopamine],-62.3%
15,CC(C)NC(=N)NC(=N)Nc1ccc(Cl)cc1 [proguanil],-7.92%
16,C[C@@H]1CC[C@H]2[C@@H](C)C(=O)O[C@@H]3O[C@@]4(C)CC[C@@H]1[C@]32OO4 [artemisinin],-161%
17,CN(C)CCOC(c1ccccc1)c1ccccc1 [diphenhydramine],-37.9%
18,O=C(/C=C/c1ccc(O)c(O)c1/C=C/c1ccc(O)c(O)c1)O[C@H](Cc1ccc(O)c(O)c1)C(=O)O [salvianolic acid A],-32.3%
19,COc1c2occc2cc2ccc(=O)oc12 [xanthotoxin],-42.2%
20,COc1ccc2c(c1OC)CN1CCc3cc4c(cc3C1=C2)OCO4 [dihydroberberine],30.6%
21,C[C@@H]1C(=O)O[C@H](C)[C@H]1C[C@@H](O)[C@](C)(O)[C@H]1CC[C@@]2(O)C3=CC(=O)[C@@H]4C[C@@H](O)[C@@H](O)C[C@]4(C)[C@H]3CC[C@]12C [cyasterone],-50.6%
22,CCOC(=O)C1(c2ccccc2)CCN(C)CC1 [pethidine],-43.7%
23,CN1CCCC(n2nc(Cc3ccc(Cl)cc3)c3ccccc3c2=O)CC1 (stereo not drawn) [azelastine],-74.3%
24,COC(=O)C1=C(C)NC(C)=C(C(=O)OC)C1c1ccccc1[N+](=O)[O-] [nifedipine],6.88%

row,Compound,inhibition at 10 µM
1,CCOC(=O)C1=C[C@@H](OC(CC)CC)[C@H](NC(C)=O)[C@@H](N)C1 [oseltamivir],-47.6%
2,CN(C)CCC=C1c2ccccc2COc2ccccc21 [doxepin],-54.9%
3,O=C(/C=C/c1ccc(O)cc1)c1ccc(O)cc1O [isoliquiritigenin],-123%
4,C=C1C(=O)O[C@@]23[C@H]1CC[C@@H](C)[C@@H]2CC[C@@]1(C)O[C@@H]31 [arteannuin b],-8.46%
5,CS(=O)(=O)CCNCc1ccc(-c2ccc3ncnc(Nc4ccc(OCc5cccc(F)c5)c(Cl)c4)c3c2)o1 [lapatinib],98.8%
6,CN(C)CCC(c1ccc(Cl)cc1)c1ccccn1 (stereo not drawn) [chlorpheniramine],-42.9%
7,CCCc1nc(C(C)(C)O)c(C(=O)O)n1Cc1ccc(-c2ccccc2-c2nnn[nH]2)cc1 [olmesartan],-34.8%
8,COc1ccc([C@@H]2CC(=O)c3c(O)cc(O[C@@H]4O[C@H](CO)[C@@H](O)[C@H](O)[C@H]4O[C@@H]4O[C@@H](C)[C@H](O)[C@@H](O)[C@H]4O)cc3O2)cc1O [neohesperidin],-49.4%
9,O=C(/C=C/c1ccc(O)c2oc(-c3ccc(O)c(O)c3)cc12)O[C@H](Cc1ccc(O)c(O)c1)C(=O)O [salvianolic acid C],-2.73%
10,COc1ccc2ccc(=O)oc2c1CC=C(C)C [osthole],-21.2%
11,COc1ccc(CCN(C)CCCC(C#N)(c2ccc(OC)c(OC)c2)C(C)C)cc1OC (stereo not drawn) [verapamil],66%
12,CCOC(=O)C1=C(C)NC(C)=C(C(=O)OC)C1c1cccc([N+](=O)[O-])c1 (stereo not drawn) [nitrendipine],-26.4%
13,COC(=O)C[C@](O)(CCCC(C)(C)O)C(=O)O[C@@H]1C(OC)=C[C@]23CCCN2CCc2cc4c(cc2[C@H]13)OCO4 [homoharringtonine],68.7%
14,CC(C)[C@H](N)C(=O)OCCOCn1cnc2c(=O)nc(N)[nH]c21 [valaciclovir],-63.9%
15,Cc1ccc(N(CC2=NCCN2)c2cccc(O)c2)cc1 [phentolamine],-43.1%
16,CC(C)(C)NC(=O)[C@@H]1CN(Cc2cccnc2)CCN1C[C@@H](O)C[C@@H](Cc1ccccc1)C(=O)N[C@H]1c2ccccc2C[C@H]1O [indinavir],-52.2%
17,CCCCC(=O)N(Cc1ccc(-c2ccccc2-c2nnn[nH]2)cc1)[C@H](C(=O)O)C(C)C [valsartan],-32.4%
18,CCOc1nc2cccc(C(=O)O)c2n1Cc1ccc(-c2ccccc2-c2nnn[nH]2)cc1 [candesartan],-49.7%
19,COC(=O)C1=C(C)NC(C)=C(C(=O)OCCN(C)Cc2ccccc2)C1c1cccc([N+](=O)[O-])c1 (stereo not drawn) [nicardipine],-74.2%
20,CCOC(=O)C1=C(COCCN)NC(C)=C(C(=O)OC)C1c1ccccc1Cl (stereo not drawn) [amlodipine],-59.8%
21,CC(=O)Nc1ccc(OCC(O)CNC(C)C)cc1 (stereo not drawn) [practolol],-62.1%
22,COc1cc2nccc(Oc3ccc(NC(=O)C4(C(=O)Nc5ccc(F)cc5)CC4)cc3)c2cc1OC [cabozantinib],90.1%
23,CC(C)=CCOc1c2ccoc2cc2oc(=O)ccc12 [isoimperatorin],-85.9%
24,CN[C@@H](C)[C@H](O)c1ccccc1 [ephedrine hydrochloride],-29%

row,Compound,inhibition at 10 µM
1,COCCOC(=O)C1=C(C)NC(C)=C(C(=O)OC(C)C)C1c1cccc([N+](=O)[O-])c1 (stereo not drawn) [nimodipine],-69.7%
2,C#Cc1cccc(Nc2ncnc3cc(OCCOC)c(OCCOC)cc23)c1 [erlotinib],3.52%
3,CC[C@H]1CN2CC[C@]3(C(=O)Nc4ccccc43)[C@@H]2C[C@@H]1/C(=C\OC)C(=O)OC [rhynchophylline],-47.3%
4,Cc1ccc(Nc2nccc(N(C)c3ccc4c(C)n(C)nc4c3)n2)cc1S(N)(=O)=O [pazopanib],76.2%
5,COc1cc2nc(N3CCN(C(=O)C4CCCO4)CC3)nc(N)c2cc1OC (stereo not drawn) [terazosin],-57%
6,CC(C)(C)NCC(O)c1cc(O)cc(O)c1 (stereo not drawn) [terbutaline],-58.2%
7,CC(=O)Oc1ccc2c3c1O[C@H]1[C@@H](OC(C)=O)C=C[C@H]4[C@@H](C2)N(C)CC[C@@]341 [heroin],-30.2%
8,CC(C)(C)NC(=O)[C@@H]1C[C@@H]2CCCC[C@@H]2CN1C[C@@H](O)[C@H](Cc1ccccc1)NC(=O)[C@H](CC(N)=O)NC(=O)c1ccc2ccccc2n1 [saquinavir],-30.4%
9,O=c1c(O)c(-c2ccc(O)c(O)c2)oc2cc(O)cc(O)c12 [quercetin],-58.4%
10,O=C(/C=C/c1ccc(O)c2c1[C@H](C(=O)O[C@H](Cc1ccc(O)c(O)c1)C(=O)O)[C@@H](c1ccc(O)c(O)c1)O2)O[C@H](Cc1ccc(O)c(O)c1)C(=O)O [salvianolic acid B],-40.8%
11,CN(C)C(=O)Oc1cc(OC(=O)N(C)C)cc(C(O)CNC(C)(C)C)c1 (stereo not drawn) [bambuterol],-43.1%
12,O=C(O)c1cn(C2CC2)c2cc(N3CCNCC3)c(F)cc2c1=O [ciprofloxacin],-3.17%
13,CCCc1nc2c(C)cc(-c3nc4ccccc4n3C)cc2n1Cc1ccc(-c2ccccc2C(=O)O)cc1 [telmisartan],-8.14%
14,Cc1cn([C@H]2C[C@H](N=[N+]=[N-])[C@@H](CO)O2)c(=O)[nH]c1=O [zidovudine],10.3%
15,C[C@H]1COC2=C1C(=O)C(=O)c1c2ccc2c1CCCC2(C)C [cryptotanshinone],-72.9%
16,O=C(O)[C@H]1O[C@@H](Oc2cc3oc(-c4ccccc4)cc(=O)c3c(O)c2O)[C@H](O)[C@@H](O)[C@@H]1O [baicalin],-31%
17,CN(C)C/C=C/C(=O)Nc1cc2c(Nc3ccc(F)c(Cl)c3)ncnc2cc1O[C@H]1CCOC1 [afatinib],78.6%
18,OCc1cc(C(O)CNCCCCCCOCCCCc2ccccc2)ccc1O (stereo not drawn) [salmeterol],-72.7%
19,O=C1Nc2ccc(Cl)cc2[C@@](C#CC2CC2)(C(F)(F)F)O1 [sustiva],-40.1%
20,OCCOCCN1CCN(C2=Nc3ccccc3Sc3ccccc32)CC1 [quetiapine],-46.2%
21,COC(=O)CCc1ccc(OCC(O)CNC(C)C)cc1 (stereo not drawn) [brevibloc],-12.6%
22,CC(C)=CCOc1c2occc2cc2ccc(=O)oc12 [imperatorin],-7.73%

# Same assay, conditions: Homo sapiens, K562, 48 h; read-out: Inhibition rate (%, 10 μM)
row,Compound,inhibition at 10 µM
1,COC1=C[C@@H]2[C@@H]3Cc4ccc(OC)c(O)c4[C@]2(CCN3C)CC1=O [sinomenine],-4.7%
2,COC1=CC=C2[C@H]3Cc4ccc(OC)c5c4[C@@]2(CCN3C)[C@H]1O5 [thebaine],-58.3%
